Laboratory results taken from ChEMBL document CHEMBL3217552, “Novel benzothiazole derivatives with a broad antifungal spectrum: design, synthesis and structureactivity relationships” (2013).
≈ marks a conversion by molar mass, not a printed value. Calls of active or inactive are those of the source. The rule behind the calls is not given here.

Assays:
Cryptococcus neoformans = experiment: Antifungal activity against Cryptococcus neoformans after 72 hrs by serial dilution method; type: functional
Nannizzia gypsea = experiment: Antifungal activity against Microsporum gypseum after 72 hrs by serial dilution method; type: functional
Candida parapsilosis = experiment: Antifungal activity against Candida parapsilosis after 24 hrs by serial dilution method; type: functional; settings: Lodderomyces parapsilosis
Nakaseomyces glabratus = experiment: Antifungal activity against Candida glabrata after 24 hrs by serial dilution method; type: functional
Trichophyton rubrum = experiment: Antifungal activity against Trichophyton rubrum after 72 hrs by serial dilution method; type: functional
Candida albicans [1] = experiment: Antifungal activity against Candida albicans after 24 hrs by serial dilution method; type: functional
Candida albicans [2] = experiment: Antifungal activity against Candida albicans SC5314 infected in Caenorhabditis elegans assessed as nematode survival at 16 ug/ml after 144 hrs by serial dilution method; type: functional; settings: SC5314, 144 h
Candida albicans [3] = experiment: Antifungal activity against Candida albicans SC5314 infected in Caenorhabditis elegans assessed as nematode survival at 32 ug/ml after 144 hrs by serial dilution method; type: functional, organism-based

Compound: O=C(Nc1nc2ccc(NC(=O)[C@@H]3CCC[C@H](NCc4cnc5ccccc5c4)C3)cc2s1)C1CCCC1
- MIC80 (Cryptococcus neoformans): 4 µg/mL (≈ 7.58 µM)
- MIC80 (Nannizzia gypsea): > 64 µg/mL
- MIC80 (Candida parapsilosis): 8 µg/mL (≈ 15.2 µM)
- MIC80 (Nakaseomyces glabratus): > 64 µg/mL
- MIC80 (Trichophyton rubrum): 8 µg/mL (≈ 15.2 µM)
- MIC80 (Candida albicans [1]): 8 µg/mL (≈ 15.2 µM)

Compound: O=C(Nc1nc2ccc(NC(=O)[C@@H]3CCC[C@H](NCc4ccc5ccccc5c4)C3)cc2s1)C1CCCC1 (racemic)
- MIC80 (Cryptococcus neoformans): > 64 µg/mL
- MIC80 (Nannizzia gypsea): > 64 µg/mL
- MIC80 (Candida parapsilosis): > 64 µg/mL
- MIC80 (Nakaseomyces glabratus): > 64 µg/mL
- MIC80 (Trichophyton rubrum): > 64 µg/mL
- MIC80 (Candida albicans [1]): 4 µg/mL (≈ 7.59 µM)

Compound: O=C(Nc1nc2ccc(NC(=O)[C@@H]3CCC[C@H](NCc4ccc5ccccc5c4Br)C3)cc2s1)C1CCCC1 (relative stereo)
- MIC80 (Cryptococcus neoformans): > 64 µg/mL
- MIC80 (Nannizzia gypsea): 64 µg/mL (≈ 106 µM)
- MIC80 (Candida parapsilosis): > 64 µg/mL
- MIC80 (Nakaseomyces glabratus): > 64 µg/mL
- MIC80 (Trichophyton rubrum): 64 µg/mL (≈ 106 µM)
- MIC80 (Candida albicans [1]): > 64 µg/mL

Compound: COc1ccc2cc(CN[C@H]3CCC[C@@H](C(=O)Nc4ccc5nc(NC(=O)C6CCCC6)sc5c4)C3)ccc2c1 (relative stereo)
- MIC80 (Cryptococcus neoformans): > 64 µg/mL
- MIC80 (Nannizzia gypsea): > 64 µg/mL
- MIC80 (Candida parapsilosis): > 64 µg/mL
- MIC80 (Nakaseomyces glabratus): > 64 µg/mL
- MIC80 (Trichophyton rubrum): > 64 µg/mL
- MIC80 (Candida albicans [1]): > 64 µg/mL

Compound: O=C(Nc1nc2ccc(NC(=O)[C@@H]3CCC[C@H](NCc4cccc5ccccc45)C3)cc2s1)C1CCCC1 (relative stereo)
- MIC80 (Cryptococcus neoformans): > 64 µg/mL
- MIC80 (Nannizzia gypsea): > 64 µg/mL
- MIC80 (Candida parapsilosis): > 64 µg/mL
- MIC80 (Nakaseomyces glabratus): > 64 µg/mL
- MIC80 (Trichophyton rubrum): > 64 µg/mL
- MIC80 (Candida albicans [1]): > 64 µg/mL

Compound: COc1ccc2ccccc2c1CN[C@H]1CCC[C@@H](C(=O)Nc2ccc3nc(NC(=O)C4CCCC4)sc3c2)C1 (relative stereo)
- MIC80 (Cryptococcus neoformans): > 64 µg/mL
- MIC80 (Nannizzia gypsea): 64 µg/mL (≈ 115 µM)
- MIC80 (Candida parapsilosis): > 64 µg/mL
- MIC80 (Nakaseomyces glabratus): > 64 µg/mL
- MIC80 (Trichophyton rubrum): 64 µg/mL (≈ 115 µM)
- MIC80 (Candida albicans [1]): > 64 µg/mL

Compound: COc1ccc(CN[C@H]2CCC[C@@H](C(=O)Nc3ccc4nc(NC(=O)C5CCCC5)sc4c3)C2)c2ccccc12 (relative stereo)
- MIC80 (Cryptococcus neoformans): > 64 µg/mL
- MIC80 (Nannizzia gypsea): > 64 µg/mL
- MIC80 (Candida parapsilosis): > 64 µg/mL
- MIC80 (Nakaseomyces glabratus): > 64 µg/mL
- MIC80 (Trichophyton rubrum): > 64 µg/mL
- MIC80 (Candida albicans [1]): > 64 µg/mL

Compound: CCOc1ccc2ccccc2c1CN[C@H]1CCC[C@@H](C(=O)Nc2ccc3nc(NC(=O)C4CCCC4)sc3c2)C1 (relative stereo)
- MIC80 (Cryptococcus neoformans): > 64 µg/mL
- MIC80 (Nannizzia gypsea): 64 µg/mL (≈ 112 µM)
- MIC80 (Candida parapsilosis): > 64 µg/mL
- MIC80 (Nakaseomyces glabratus): > 64 µg/mL
- MIC80 (Trichophyton rubrum): 64 µg/mL (≈ 112 µM)
- MIC80 (Candida albicans [1]): > 64 µg/mL

Compound: O=C(Nc1nc2ccc(NC(=O)[C@@H]3CCC[C@H](NCc4ccc5ccccc5n4)C3)cc2s1)C1CCCC1 (relative stereo)
- MIC80 (Cryptococcus neoformans): > 64 µg/mL
- MIC80 (Nannizzia gypsea): > 64 µg/mL
- MIC80 (Candida parapsilosis): > 64 µg/mL
- MIC80 (Nakaseomyces glabratus): > 64 µg/mL
- MIC80 (Trichophyton rubrum): > 64 µg/mL
- MIC80 (Candida albicans [1]): > 64 µg/mL

Compound: O=C(Nc1nc2ccc(NC(=O)[C@@H]3CCC[C@H](NCc4cc5ccccc5nc4Cl)C3)cc2s1)C1CCCC1 (relative stereo)
- MIC80 (Cryptococcus neoformans): > 64 µg/mL
- MIC80 (Nannizzia gypsea): > 64 µg/mL
- MIC80 (Candida parapsilosis): > 64 µg/mL
- MIC80 (Nakaseomyces glabratus): > 64 µg/mL
- MIC80 (Trichophyton rubrum): > 64 µg/mL
- MIC80 (Candida albicans [1]): > 64 µg/mL

Compound: O=C(Nc1nc2ccc(NC(=O)[C@@H]3CCC[C@H](NCC4CNc5ccccc5C4)C3)cc2s1)C1CCCC1 (relative stereo)
- MIC80 (Cryptococcus neoformans): > 64 µg/mL
- MIC80 (Nannizzia gypsea): 64 µg/mL (≈ 120 µM)
- MIC80 (Candida parapsilosis): > 64 µg/mL
- MIC80 (Nakaseomyces glabratus): > 64 µg/mL
- MIC80 (Trichophyton rubrum): > 64 µg/mL
- MIC80 (Candida albicans [1]): 32 µg/mL (≈ 60.2 µM)

Compound: O=C(Nc1nc2ccc(NC(=O)[C@@H]3CCC[C@H](NCc4ccnc5ccccc45)C3)cc2s1)C1CCCC1 (relative stereo)
- MIC80 (Cryptococcus neoformans): > 64 µg/mL
- MIC80 (Nannizzia gypsea): 16 µg/mL (≈ 30.3 µM)
- MIC80 (Candida parapsilosis): > 64 µg/mL
- MIC80 (Nakaseomyces glabratus): > 64 µg/mL
- MIC80 (Trichophyton rubrum): > 64 µg/mL
- MIC80 (Candida albicans [1]): > 64 µg/mL

Compound: O=C(Nc1nc2ccc(NC(=O)[C@@H]3CCC[C@H](NCc4ccc5ncccc5c4)C3)cc2s1)C1CCCC1 (relative stereo)
- MIC80 (Cryptococcus neoformans): 4 µg/mL (≈ 7.58 µM)
- survival at 16 µg/mL (Candida albicans [2]): 60%
- MIC80 (Nannizzia gypsea): > 64 µg/mL
- MIC80 (Candida parapsilosis): 4 µg/mL (≈ 7.58 µM)
- MIC80 (Nakaseomyces glabratus): 0.125 µg/mL (≈ 0.237 µM)
- MIC80 (Trichophyton rubrum): 4 µg/mL (≈ 7.58 µM)
- MIC80 (Candida albicans [1]): 4 µg/mL (≈ 7.58 µM)

Compound: O=C(Nc1nc2ccc(NC(=O)[C@@H]3CCC[C@H](NCC4CCc5ncccc5C4)C3)cc2s1)C1CCCC1 (relative stereo)
- MIC80 (Cryptococcus neoformans): > 64 µg/mL
- MIC80 (Nannizzia gypsea): > 64 µg/mL
- MIC80 (Candida parapsilosis): 64 µg/mL (≈ 120 µM)
- MIC80 (Nakaseomyces glabratus): > 64 µg/mL
- MIC80 (Trichophyton rubrum): > 64 µg/mL
- MIC80 (Candida albicans [1]): 16 µg/mL (≈ 30.1 µM)

Compound: O=C(Nc1nc2ccc(NC(=O)[C@@H]3CCC[C@H](NCc4cccc5cccnc45)C3)cc2s1)C1CCCC1 (relative stereo)
- MIC80 (Cryptococcus neoformans): > 64 µg/mL
- MIC80 (Nannizzia gypsea): > 64 µg/mL
- MIC80 (Candida parapsilosis): > 64 µg/mL
- MIC80 (Nakaseomyces glabratus): > 64 µg/mL
- MIC80 (Trichophyton rubrum): > 64 µg/mL
- MIC80 (Candida albicans [1]): > 64 µg/mL

Compound: O=C(Nc1nc2ccc(NC(=O)[C@@H]3CCC[C@H](NCc4ccc5ccccc5c4)C3)cc2o1)C1CCCC1 (relative stereo)
- MIC80 (Cryptococcus neoformans): > 64 µg/mL
- MIC80 (Nannizzia gypsea): 1 µg/mL (≈ 1.96 µM)
- MIC80 (Candida parapsilosis): > 64 µg/mL
- MIC80 (Nakaseomyces glabratus): > 64 µg/mL
- MIC80 (Trichophyton rubrum): > 64 µg/mL
- MIC80 (Candida albicans [1]): > 64 µg/mL

Compound: O=C(Nc1nc2ccc(NC(=O)[C@@H]3CCC[C@H](NCc4ccc5ccccc5n4)C3)cc2o1)C1CCCC1 (relative stereo)
- MIC80 (Cryptococcus neoformans): > 64 µg/mL
- MIC80 (Nannizzia gypsea): 1 µg/mL (≈ 1.95 µM)
- MIC80 (Candida parapsilosis): > 64 µg/mL
- MIC80 (Nakaseomyces glabratus): > 64 µg/mL
- MIC80 (Trichophyton rubrum): > 64 µg/mL
- MIC80 (Candida albicans [1]): > 64 µg/mL

Compound: O=C(Nc1ccc2nc(NC(=O)[C@@H]3CCC[C@H](NCc4ccc5ccccc5c4)C3)sc2c1)C1CCCC1 (relative stereo)
- MIC80 (Cryptococcus neoformans): 32 µg/mL (≈ 60.8 µM)
- MIC80 (Nannizzia gypsea): 32 µg/mL (≈ 60.8 µM)
- MIC80 (Candida parapsilosis): > 64 µg/mL
- MIC80 (Nakaseomyces glabratus): 16 µg/mL (≈ 30.4 µM)
- MIC80 (Trichophyton rubrum): 32 µg/mL (≈ 60.8 µM)
- MIC80 (Candida albicans [1]): 8 µg/mL (≈ 15.2 µM)

Compound: O=C(Nc1ccc2nc(NC(=O)[C@@H]3CCC[C@H](NCc4ccc5ccccc5n4)C3)sc2c1)C1CCCC1 (relative stereo)
- MIC80 (Cryptococcus neoformans): > 64 µg/mL
- MIC80 (Nannizzia gypsea): 64 µg/mL (≈ 121 µM)
- MIC80 (Candida parapsilosis): > 64 µg/mL
- MIC80 (Nakaseomyces glabratus): > 64 µg/mL
- MIC80 (Trichophyton rubrum): > 64 µg/mL
- MIC80 (Candida albicans [1]): > 64 µg/mL

Compound: O=C(Nc1ccc2nc(NC(=O)[C@@H]3CCC[C@H](NCc4cnc5ccccc5c4)C3)sc2c1)C1CCCC1 (relative stereo)
- MIC80 (Cryptococcus neoformans): > 64 µg/mL
- MIC80 (Nannizzia gypsea): 64 µg/mL (≈ 121 µM)
- MIC80 (Candida parapsilosis): > 64 µg/mL
- MIC80 (Nakaseomyces glabratus): > 64 µg/mL
- MIC80 (Trichophyton rubrum): > 64 µg/mL
- MIC80 (Candida albicans [1]): > 64 µg/mL

Compound: O=C(Nc1ccc2nc(NC(=O)[C@@H]3CCC[C@H](NCc4ccnc5ccccc45)C3)sc2c1)C1CCCC1 (relative stereo)
- MIC80 (Cryptococcus neoformans): 16 µg/mL (≈ 30.3 µM)
- MIC80 (Nannizzia gypsea): > 64 µg/mL
- MIC80 (Candida parapsilosis): > 64 µg/mL
- MIC80 (Nakaseomyces glabratus): 16 µg/mL (≈ 30.3 µM)
- MIC80 (Trichophyton rubrum): > 64 µg/mL
- MIC80 (Candida albicans [1]): > 64 µg/mL

Compound: O=C(Nc1ccc2nc(NC(=O)[C@@H]3CCC[C@H](NCc4ccc5ncccc5c4)C3)sc2c1)C1CCCC1 (relative stereo)
- MIC80 (Cryptococcus neoformans): > 64 µg/mL
- MIC80 (Nannizzia gypsea): 32 µg/mL (≈ 60.6 µM)
- MIC80 (Candida parapsilosis): > 64 µg/mL
- MIC80 (Nakaseomyces glabratus): > 64 µg/mL
- MIC80 (Trichophyton rubrum): > 64 µg/mL
- MIC80 (Candida albicans [1]): > 64 µg/mL

Compound: O=C(Nc1nc(-c2ccc(NC(=O)[C@H]3CCC[C@@H](NCc4ccc5ccccc5c4)C3)cc2)cs1)C1CCCC1 (relative stereo)
- MIC80 (Cryptococcus neoformans): > 64 µg/mL
- MIC80 (Nannizzia gypsea): 0.125 µg/mL (≈ 0.226 µM)
- MIC80 (Candida parapsilosis): > 64 µg/mL
- MIC80 (Nakaseomyces glabratus): > 64 µg/mL
- MIC80 (Trichophyton rubrum): 32 µg/mL (≈ 57.9 µM)
- MIC80 (Candida albicans [1]): > 64 µg/mL

Compound: OC(Cn1cncn1)(Cn1cncn1)c1ccc(F)cc1F [FLUCONAZOLE]
- Activity (Candida albicans [3]): Active
- MIC80 (Cryptococcus neoformans): 16 µg/mL (≈ 52.2 µM)
- MIC80 (Nannizzia gypsea): 32 µg/mL (≈ 104 µM)
- MIC80 (Candida parapsilosis): 2 µg/mL (≈ 6.53 µM)
- MIC80 (Nakaseomyces glabratus): 2 µg/mL (≈ 6.53 µM)
- MIC80 (Trichophyton rubrum): 4 µg/mL (≈ 13.1 µM)
- MIC80 (Candida albicans [1]): 0.5 µg/mL (≈ 1.63 µM)
